Key:
Cannabinoid receptor 1 = Cannabinoid receptor 1 (Homo sapiens, UniProt P21554); type: cell membranes, Chem-1, Membrane; also: in other assays of this panel Not Active means under 50% inhibition at 10 µM
[1] = biological target: T1, Muscarinic acetylcholine receptor M2 (Homo sapiens, UniProt P08172); type: cell membranes, CHO-K1, Membrane; also: in other assays of this panel Not Active means under 50% inhibition at 10 µM
T1 sequence (P08172 whole entry): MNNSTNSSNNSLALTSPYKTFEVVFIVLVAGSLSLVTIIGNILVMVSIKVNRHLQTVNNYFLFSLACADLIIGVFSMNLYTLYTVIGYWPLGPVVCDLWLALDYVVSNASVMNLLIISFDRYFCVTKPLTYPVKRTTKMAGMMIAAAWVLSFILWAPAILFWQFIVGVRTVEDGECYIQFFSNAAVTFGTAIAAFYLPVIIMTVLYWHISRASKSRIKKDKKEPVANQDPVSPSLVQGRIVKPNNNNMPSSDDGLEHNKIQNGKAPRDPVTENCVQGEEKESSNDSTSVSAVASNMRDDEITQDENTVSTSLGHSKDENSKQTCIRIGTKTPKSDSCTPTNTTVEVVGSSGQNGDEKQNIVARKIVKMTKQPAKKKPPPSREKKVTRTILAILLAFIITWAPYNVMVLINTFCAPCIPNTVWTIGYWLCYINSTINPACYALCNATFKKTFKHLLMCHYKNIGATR

[2] = biological target: cGMP-specific 3',5'-cyclic phosphodiesterase (Homo sapiens, UniProt O76074); test: DRUGMATRIX: Phosphodiesterase PDE5 enzyme inhibition (substrate: [3H]cGMP + cGMP); type: tissue-based; conditions: platelet; Not Active = under 50% inhibition at 10 µM
Melanocortin receptor 3 = Melanocortin receptor 3 (Homo sapiens, UniProt P41968); type: cell membranes, Membrane; conditions: hek293; also: in other assays of this panel Not Active means under 50% inhibition at 10 µM
Melanocortin receptor 3, sequence (P41968 whole entry): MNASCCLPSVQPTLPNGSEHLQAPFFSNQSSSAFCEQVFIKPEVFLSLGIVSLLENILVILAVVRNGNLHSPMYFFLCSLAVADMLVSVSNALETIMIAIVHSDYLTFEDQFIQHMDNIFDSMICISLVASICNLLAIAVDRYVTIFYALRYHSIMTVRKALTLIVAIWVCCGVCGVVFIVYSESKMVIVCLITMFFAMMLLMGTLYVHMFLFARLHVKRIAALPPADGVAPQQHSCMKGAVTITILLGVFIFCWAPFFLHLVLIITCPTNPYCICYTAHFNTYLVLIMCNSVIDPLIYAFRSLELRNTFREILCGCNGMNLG

Substance-K receptor = biological target: T2, Substance-K receptor (Homo sapiens, UniProt P21452); type: cell membranes, CHO, Membrane; also: in other assays of this panel Not Active means under 50% inhibition at 10 µM
T2 sequence (P21452 whole entry): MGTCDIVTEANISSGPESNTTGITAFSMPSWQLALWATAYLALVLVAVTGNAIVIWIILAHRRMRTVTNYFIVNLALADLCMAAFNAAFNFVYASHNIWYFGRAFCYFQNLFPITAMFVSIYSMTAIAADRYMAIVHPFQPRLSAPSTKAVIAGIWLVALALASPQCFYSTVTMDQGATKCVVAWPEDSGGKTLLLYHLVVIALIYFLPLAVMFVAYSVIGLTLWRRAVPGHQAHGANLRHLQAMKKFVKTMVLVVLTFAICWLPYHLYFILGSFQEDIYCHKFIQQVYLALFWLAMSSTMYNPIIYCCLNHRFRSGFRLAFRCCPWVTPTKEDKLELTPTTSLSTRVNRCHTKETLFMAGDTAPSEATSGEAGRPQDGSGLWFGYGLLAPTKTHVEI

Progesterone receptor = biological target: T3, Progesterone receptor (Bos taurus, UniProt Q690N0); test: DRUGMATRIX: Progesterone radioligand binding (ligand: [3H] R-5020); type: tissue-based, Uterus; conditions: Not Active = under 50% inhibition at 10 µM; for Ki: read-out: Ki
T3 sequence (Q690N0 whole entry): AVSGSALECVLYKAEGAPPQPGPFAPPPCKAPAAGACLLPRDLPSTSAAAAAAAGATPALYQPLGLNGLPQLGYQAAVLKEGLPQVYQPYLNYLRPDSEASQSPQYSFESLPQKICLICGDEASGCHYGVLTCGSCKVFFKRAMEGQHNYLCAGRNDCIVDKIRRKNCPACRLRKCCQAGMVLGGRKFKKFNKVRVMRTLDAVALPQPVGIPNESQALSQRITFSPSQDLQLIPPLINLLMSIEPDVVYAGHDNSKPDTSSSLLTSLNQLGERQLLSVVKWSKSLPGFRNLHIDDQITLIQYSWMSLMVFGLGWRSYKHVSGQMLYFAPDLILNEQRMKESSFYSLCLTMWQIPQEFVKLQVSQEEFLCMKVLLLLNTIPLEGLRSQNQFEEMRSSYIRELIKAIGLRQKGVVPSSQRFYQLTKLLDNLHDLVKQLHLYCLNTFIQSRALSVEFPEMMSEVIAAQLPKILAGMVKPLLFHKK

Cannabinoid receptor 1, sequence (P21554 whole entry): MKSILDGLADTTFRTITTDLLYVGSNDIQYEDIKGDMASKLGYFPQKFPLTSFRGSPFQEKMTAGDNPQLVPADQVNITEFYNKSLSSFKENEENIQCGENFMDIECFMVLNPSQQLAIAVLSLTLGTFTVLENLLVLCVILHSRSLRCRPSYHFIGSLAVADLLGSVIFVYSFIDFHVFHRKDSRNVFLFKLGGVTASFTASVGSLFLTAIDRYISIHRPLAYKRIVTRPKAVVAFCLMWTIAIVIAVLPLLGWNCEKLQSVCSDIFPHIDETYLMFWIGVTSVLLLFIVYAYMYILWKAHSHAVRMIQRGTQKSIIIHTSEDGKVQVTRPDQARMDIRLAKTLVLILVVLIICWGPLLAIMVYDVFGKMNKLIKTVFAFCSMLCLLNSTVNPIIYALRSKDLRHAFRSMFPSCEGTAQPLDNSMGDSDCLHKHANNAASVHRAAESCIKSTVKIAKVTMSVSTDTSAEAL

Row | Compound | IC50 (Cannabinoid receptor 1; chem-1) | IC50 ([1]; cho-k1) | IC50 [2] | IC50 (Melanocortin receptor 3) | IC50 (Substance-K receptor; cho) | IC50 (Progesterone receptor; read-out: IC50) | Ki (Progesterone receptor) | IC50 ([1]; read-out: IC50) | Ki ([1]; read-out: Ki) | IC50 (Substance-K receptor; read-out: IC50) | Ki (Substance-K receptor; read-out: Ki) | IC50 (Progesterone receptor) | IC50 (Cannabinoid receptor 1; read-out: IC50) | Ki (Cannabinoid receptor 1; read-out: Ki)
1 | CC1(C)O[C@@H]2C[C@H]3[C@@H]4C[C@H](F)C5=CC(=O)C=C[C@]5(C)[C@H]4[C@@H](O)C[C@]3(C)[C@]2(C(=O)CO)O1 [FLUNISOLIDE] | Not Active | Not Active | Not Active | Not Active | Not Active | 359 nM | 47 nM | – | – | – | – | – | – | –
2 | CC1(C)O[C@@H]2C[C@H]3[C@@H]4C[C@H](F)C5=CC(=O)C=C[C@]5(C)[C@@]4(F)[C@@H](O)C[C@]3(C)[C@]2(C(=O)CO)O1 [FLUOCINOLONE ACETONIDE] | Not Active | Not Active | Not Active | Not Active | Not Active | 26 nM | 3.35 nM | – | – | – | – | – | – | –
3 | CC1(C)O[C@@H]2C[C@H]3[C@@H]4C[C@H](F)C5=CC(=O)CC[C@]5(C)[C@H]4[C@@H](O)C[C@]3(C)[C@]2(C(=O)CO)O1 [FLURANDRENOLIDE] | Not Active | Not Active | Not Active | Not Active | Not Active | 172 nM | 22 nM | – | – | – | – | – | – | –
4 | CN(C)c1ccc(C(=C2C=CC(=[N+](C)C)C=C2)c2ccc(N(C)C)cc2)cc1.[Cl-] [GENTIAN VIOLET] | Not Active | – | Not Active | Not Active | – | – | – | 1430 nM | 508 nM | 1680 nM | 560 nM | Not Active | – | –
5 | Cc1ccc(S(=O)(=O)NC(=O)NN2CC3CCCC3C2)cc1 (stereo not drawn) [GLICLAZIDE] | Not Active | Not Active | Not Active | Not Active | Not Active | – | – | – | – | – | – | Not Active | – | –
6 | NC(=O)NO [HYDROXYUREA] | Not Active | Not Active | Not Active | Not Active | Not Active | – | – | – | – | – | – | Not Active | – | –
7 | CC(C)Cc1ccc(C(C)C(=O)O)cc1 (stereo not drawn) [IBUPROFEN] | Not Active | Not Active | Not Active | Not Active | Not Active | – | – | – | – | – | – | Not Active | – | –
8 | COc1ccc2c(c1)c(CC(=O)O)c(C)n2C(=O)c1ccc(Cl)cc1 [INDOMETHACIN] | Not Active | Not Active | Not Active | Not Active | Not Active | – | – | – | – | – | – | Not Active | – | –
9 | CCc1c2c(nc3ccc(OC(=O)N4CCC(N5CCCCC5)CC4)cc13)-c1cc3c(c(=O)n1C2)COC(=O)[C@]3(O)CC [IRINOTECAN] | Not Active | Not Active | Not Active | Not Active | Not Active | – | – | – | – | – | – | Not Active | – | –
10 | CC(C(=O)O)c1cccc(C(=O)c2ccccc2)c1 (stereo not drawn) [KETOPROFEN] | Not Active | Not Active | Not Active | Not Active | Not Active | – | – | – | – | – | – | Not Active | – | –
11 | Nc1ccn([C@@H]2CS[C@H](CO)O2)c(=O)n1 [LAMIVUDINE] | Not Active | Not Active | Not Active | Not Active | Not Active | – | – | – | – | – | – | Not Active | – | –
12 | O=S(=O)([O-])CCS.[Na+] [MESNA] | Not Active | Not Active | Not Active | Not Active | Not Active | – | – | – | – | – | – | Not Active | – | –
13 | C#C[C@]1(O)CC[C@H]2[C@@H]3CCc4cc(OC)ccc4[C@H]3CC[C@@]21C [MESTRANOL] | – | Not Active | Not Active | Not Active | Not Active | 84400 nM | 11000 nM | – | – | – | – | – | 28500 nM | 22500 nM
14 | CC(=O)Nc1cccc(O)c1 [METACETAMOL] | Not Active | Not Active | Not Active | Not Active | Not Active | – | – | – | – | – | – | Not Active | – | –
15 | Cc1ncc([N+](=O)[O-])n1CCO [METRONIDAZOLE] | Not Active | Not Active | Not Active | Not Active | Not Active | – | – | – | – | – | – | Not Active | – | –
16 | CC(C)(C(=O)c1cccnc1)c1cccnc1 [METYRAPONE] | Not Active | Not Active | Not Active | Not Active | Not Active | – | – | – | – | – | – | Not Active | – | –
17 | Oc1ccc(OCc2ccccc2)cc1 [MONOBENZONE] | Not Active | Not Active | Not Active | Not Active | Not Active | – | – | – | – | – | – | Not Active | – | –
18 | CC(C)(Oc1ccc(C2CCCc3ccccc32)cc1)C(=O)O (stereo not drawn) [NAFENOPIN] | Not Active | Not Active | Not Active | Not Active | Not Active | – | – | – | – | – | – | Not Active | – | –
19 | CC(C)[C@H]1CC[C@H](C(=O)N[C@H](Cc2ccccc2)C(=O)O)CC1 [NATEGLINIDE] | Not Active | Not Active | Not Active | Not Active | Not Active | – | – | – | – | – | – | Not Active | – | –
20 | CCN[C@@H]1C[C@H](N)[C@@H](O[C@H]2OC(CN)=CC[C@H]2N)[C@H](O)[C@H]1O[C@H]1OC[C@](C)(O)[C@H](NC)[C@H]1O [NETILMICIN] | Not Active | Not Active | Not Active | Not Active | Not Active | – | – | – | – | – | – | Not Active | – | –
21 | COC(=O)C1=C(C)NC(C)=C(C(=O)OCC(C)C)C1c1ccccc1[N+](=O)[O-] (stereo not drawn) [NISOLDIPINE] | Not Active | Not Active | Not Active | Not Active | Not Active | – | – | – | – | – | – | Not Active | – | –
22 | CCOC(=O)C1=C(C)NC(C)=C(C(=O)OC)C1c1cccc([N+](=O)[O-])c1 (stereo not drawn) [NITRENDIPINE] | Not Active | Not Active | Not Active | Not Active | Not Active | – | – | – | – | – | – | Not Active | – | –
23 | C#C[C@]1(OC(C)=O)CC[C@H]2[C@@H]3CCC4=CC(=O)CC[C@@H]4[C@H]3CC[C@@]21C [NORETHINDRONE ACETATE] | Not Active | Not Active | Not Active | Not Active | Not Active | 28 nM | 3.62 nM | – | – | – | – | – | – | –
24 | COc1ccc2[nH]c([S+]([O-])Cc3ncc(C)c(OC)c3C)nc2c1 (stereo not drawn) [OMEPRAZOLE] | Not Active | Not Active | Not Active | Not Active | Not Active | – | – | – | – | – | – | Not Active | – | –
25 | Cc1nccn1CC1CCc2c(c3ccccc3n2C)C1=O (stereo not drawn) [ONDANSETRON] | Not Active | Not Active | Not Active | Not Active | Not Active | – | – | – | – | – | – | Not Active | – | –
26 | CCn1cc(C(=O)O)c(=O)c2cc(F)c(N3CCN(C)CC3)cc21 [PEFLOXACIN] | Not Active | Not Active | Not Active | Not Active | Not Active | – | – | – | – | – | – | Not Active | – | –
27 | O=C(C1CCCCC1)N1CC(=O)N2CCc3ccccc3C2C1 (stereo not drawn) [PRAZIQUANTEL] | Not Active | Not Active | Not Active | Not Active | Not Active | – | – | – | – | – | – | Not Active | – | –
28 | CCN(CC)CCOC(=O)c1ccc(N)cc1 [PROCAINE] | Not Active | Not Active | Not Active | Not Active | Not Active | – | – | – | – | – | – | Not Active | – | –
29 | CCCN(CCC)C(=O)C(CCC(=O)O)NC(=O)c1ccccc1 (stereo not drawn) [PROGLUMIDE] | Not Active | Not Active | Not Active | Not Active | Not Active | – | – | – | – | – | – | Not Active | – | –
30 | NC(=O)c1cnccn1 [PYRAZINAMIDE] | Not Active | Not Active | Not Active | Not Active | Not Active | – | – | – | – | – | – | Not Active | – | –

— ChEMBL document CHEMBL1909046, “DrugMatrix in vitro pharmacology data”
